Molecular target: T1, SIRT1 (Homo sapiens, UniProt Q96EB6)
T1 construct: purchased Cayman (Ann Arbor, Mich., USA)
T1 sequence (Q96EB6 1-747): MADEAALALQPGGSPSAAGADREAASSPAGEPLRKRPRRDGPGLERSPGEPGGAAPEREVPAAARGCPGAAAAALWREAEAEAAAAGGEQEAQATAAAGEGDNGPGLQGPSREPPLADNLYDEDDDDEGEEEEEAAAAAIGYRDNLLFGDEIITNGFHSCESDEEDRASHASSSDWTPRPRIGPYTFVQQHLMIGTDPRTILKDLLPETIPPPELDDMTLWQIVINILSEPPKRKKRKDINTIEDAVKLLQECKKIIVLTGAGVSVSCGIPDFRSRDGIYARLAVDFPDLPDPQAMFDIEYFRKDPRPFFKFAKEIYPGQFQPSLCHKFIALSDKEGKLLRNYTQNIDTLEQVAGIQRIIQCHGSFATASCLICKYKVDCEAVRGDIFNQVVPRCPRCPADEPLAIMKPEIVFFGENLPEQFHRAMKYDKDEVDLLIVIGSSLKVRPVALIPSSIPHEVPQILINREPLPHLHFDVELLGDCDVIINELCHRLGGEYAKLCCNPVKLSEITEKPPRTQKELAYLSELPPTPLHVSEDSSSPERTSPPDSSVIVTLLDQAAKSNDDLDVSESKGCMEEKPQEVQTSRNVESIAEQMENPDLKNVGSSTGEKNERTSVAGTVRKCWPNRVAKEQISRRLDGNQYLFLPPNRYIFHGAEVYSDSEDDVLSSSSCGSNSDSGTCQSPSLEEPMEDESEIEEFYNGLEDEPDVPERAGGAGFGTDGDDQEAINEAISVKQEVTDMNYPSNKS
Assay: SIRT1 direct fluorescent assay
Assay type: biochemical
Conditions: 20 μM
Procedure: All materials were provided from a Sirt1 direct fluorescent screening assay kit (Cayman, Ann Arbor, Mich., USA).
SIRT1, p53 conjugated aminomethyl coumarin (AMC) protein, and 3 mM NAD^+ were added to a diluted analysis buffer (50 mM Tris-HCl, pH 8.0, 137 mM NaCl, 2.7 mM KCl, and 1 mM MgCl2).
25 μL of the analysis buffer, 5 μL of diluted SIRT1, and 5 μL of a solvent were added to each of three 100% initial activity wells of a 96-well plate.
30 μL of the analysis buffer and 5 μL of a solvent were added to each of three background wells of the 96-well plate.
25 μL of the analysis buffer, 5 μL of diluted SIRT1, and 5 μL of a diluted test compound were added to each of three sample wells of the 96-well plate. The final DMSO concentration was less than 2%.
15 μL of a 3 mM NAD^+-containing substrate solution was added to all wells to begin the reaction. The 96-well plate was covered with a plate cover, and then incubated in a shaker at room temperature (25 to 30° C.) for 45 minutes.
A stop/developing solution was prepared. To prepare the final 5 mL solution, 200 μL of nicotinamide (NAM, Sigma-Aldrich) was added to a color developing powder weighing 30 mg, 4.8 mL of a diluted analysis buffer was added thereto, and the resulting mixture was stirred until the powder became a solution.
The plate cover was removed, and 50 μL of the stop/developing solution was added to each well.
The 96-well plate was covered with a plate cover, and incubated at room temperature (25 to 30° C.) for 30 minutes.
The plate cover was removed, and the plate was read using Cytation 5 at an excitation wavelength of 360 nm and an emission wavelength of 450 nm.
The mean fluorescence of each sample was measured.
The fluorescence of the background wells was subtracted from the fluorescence of the 100% initial activity wells and sample wells.
To determine the percent of each sample, each sample value was subtracted from the 100% initial activity value, and the resulting value was divided by the 100% initial activity value and then multiplied by 100 and added to 100, which was expressed as a percentage.

increase of SIRT1 activity (FIG. 18): about 20%
Structure (SMILES): CSc1ccc(/C=C/C=C/C(=O)N2CCCCC2)cc1 [YU2014, (2E,4E)-5-(4-(methylthio)phenyl)-1-(piperidine-1-yl)penta-2,4-dien-1-one]

Reference: patent US20200157048A1, “(2E,4E)-5-PHENYL-PENTA-2,4-DIEN-1-ONE DERIVATIVE” (BIOWAY., INC, priority 2018, published 2020)
